# Source: the supplement of paper PMC11208160
# Assay: recombinant UMI read abundance after kanamycin selection (control-corrected) (log10(CPM+1)); higher = more efficient recombination; extreme values may be limits of the assay; sequences stand for … in AGTGCAGAGAAAATCGGCCAGTTTTCTCTGCCTGCAGTCCGCATGCCGTGGGACCCCTTGGGTTCTAACCTGTTGCCTAGATTTATGCAGCGGACTGCCTTTCTCCCAAAGTGATAAACCGG…AGGTTGGTTTCACT; site = the 11-nt donor
# Experimental: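 Pooled E. coli donor-specificity screen for the IS621 bridge recombinase. Each library member carries a reprogrammed 11-nt donor and a full-length LE bridge RNA expressed in cis from the natural promoter, with a paired donor-binding loop (8-nt LDG + 4-nt RDG) and a target-binding loop fixed to T5. It is co-electroporated with a T5 target plasmid; recombinase is induced with 0.07 mM IPTG and recombinants are selected on kanamycin. UMIs are counted as CPM, averaged over two biological replicates and corrected by the unselected control. Molecule = full bridge RNA written as DNA, built from the T5 scaffold: LDG = donor specificity nt 1-8, RDG = reverse complement of nt 8-11.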
# 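Also: IS621 bridge recombinase in Escherichia coli cells against a fixed T5 target plasmid.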
row,Sequence,recombinant UMI read abundance (log10)
1,AAAACTGCATGGACCGGTTTTCCCGGTAATCCGTATTTGAA (site AAAACTGCTTT),0.637
2,AAAAGATCATGGACCGGTTTTCCCGGTAATCCGTATTTGGA (site AAAAGATCTTC),1.94
3,AAAAGATCATGGACCGGTTTTCCCGGTAATCCGTATTTGGC (site AAAAGATCTGC),2.65
4,AAACACGCATGGACCGGTTTTCCCGGTAATCCGTATTTGGG (site AAACACGCTCC),0.227
5,AAACACGCATGGACCGGTTTTCCCGGTAATCCGTATTTGGG (site AACCACGCTCC),0.0138
6,AAACACGCATGGACCGGTTTTCCCGGTAATCCGTATTTGGG (site AAGCACGCTCC),0.0101
7,AAACACGCATGGACCGGTTTTCCCGGTAATCCGTATTTGGG (site AATCACGCTCC),0.0344
8,AAACAGACATGGACCGGTTTTCCCGGTAATCCGTATTTGGA (site AAACAGACTTC),0.991
9,AAACGAACATGGACCGGTTTTCCCGGTAATCCGTATTTGTC (site AAACGAACTGA),1.58
10,AAACGAACATGGACCGGTTTTCCCGGTAATCCGTATTTGTC (site ACACGAACTGA),0.524
11,AAACGAACATGGACCGGTTTTCCCGGTAATCCGTATTTGTC (site AGACGAACTGA),0
12,AAACGAACATGGACCGGTTTTCCCGGTAATCCGTATTTGTC (site ATACGAACTGA),0.767
13,AAACGAGCATGGACCGGTTTTCCCGGTAATCCGTATTTGAG (site AAACGAGCTCT),1.78
14,AAACGTCCATGGACCGGTTTTCCCGGTAATCCGTATTTGAT (site AAACGTCCTAT),0.701
15,AAACGTCCATGGACCGGTTTTCCCGGTAATCCGTATTTGAT (site AACCGTCCTAT),0.00727
16,AAACGTCCATGGACCGGTTTTCCCGGTAATCCGTATTTGAT (site AAGCGTCCTAT),0.266

row,Sequence,recombinant UMI read abundance (log10)
1,AAACGTCCATGGACCGGTTTTCCCGGTAATCCGTATTTGAT (site AATCGTCCTAT),0.0129
2,AAAGACCCATGGACCGGTTTTCCCGGTAATCCGTATTTGGT (site AAAGACCCTAC),1.02
3,AAAGCGCCATGGACCGGTTTTCCCGGTAATCCGTATTTGTG (site AAAGCGCCTCA),0.207
4,AAAGCGCCATGGACCGGTTTTCCCGGTAATCCGTATTTGTG (site CAAGCGCCTCA),0.017
5,AAAGCGCCATGGACCGGTTTTCCCGGTAATCCGTATTTGTG (site GAAGCGCCTCA),0.0199
6,AAAGCGCCATGGACCGGTTTTCCCGGTAATCCGTATTTGTG (site TAAGCGCCTCA),0.019
7,AAAGGCTCATGGACCGGTTTTCCCGGTAATCCGTATTTGCG (site AAAGGCTCTCG),2.61
8,AAAGTAACATGGACCGGTTTTCCCGGTAATCCGTATTTGCT (site AAAGTAACTAG),2.89
9,AAAGTAACATGGACCGGTTTTCCCGGTAATCCGTATTTGCT (site AACGTAACTAG),2.06
10,AAAGTAACATGGACCGGTTTTCCCGGTAATCCGTATTTGCT (site AAGGTAACTAG),1.66
11,AAAGTAACATGGACCGGTTTTCCCGGTAATCCGTATTTGCT (site AATGTAACTAG),2.1
12,AAAGTATCATGGACCGGTTTTCCCGGTAATCCGTATTTGCA (site AAAGTATCTTG),2.86
13,AAAGTATCATGGACCGGTTTTCCCGGTAATCCGTATTTGCA (site ACAGTATCTTG),2.64
14,AAAGTATCATGGACCGGTTTTCCCGGTAATCCGTATTTGCA (site AGAGTATCTTG),2.83
15,AAAGTATCATGGACCGGTTTTCCCGGTAATCCGTATTTGCA (site ATAGTATCTTG),2.62
16,AAAGTATCATGGACCGGTTTTCCCGGTAATCCGTATTTGCT (site AAAGTATCTAG),2.73
